Experimental data taken from patent US5792758A, “Steroid nitrite ester derivatives useful as anti-inflammatory drugs” (G. D. Searle & Co., priority 1995, dated 1998).

System: rat aortic ring
Assay: In vitro smooth muscle relaxant activity assay (rat aortic ring assay) in the presence of Cys and L-NAME
Type: cell-based
Settings: for EC50: rat aortic rings precontracted with phenylephrine (0.3 uM), read-out: Relaxation, EC50
Protocol: The rat aortic ring assay was utilized as a bioassay to measure the relaxant activity. The rings were precontracted with phenylephrine (0.3 uM) and subsequently compounds were added to the tissue bath in the presence of cysteine (Cys) and N^G -L-nitroarginine methyl ester (L-NAME): In vitro smooth muscle relaxant activity assay in the presence of Cys and L-NAME: […]

| SMILES | smooth muscle relaxant activity (in words) (rat aortic rings precontracted with phenylephrine) | EC50 [µM] |
| --- | --- | --- |
| CCCC1O[C@@H]2C[C@H]3[C@@H]4CCC5=CC(=O)C=C[C@]5(C)[C@H]4[C@@H](O)C[C@]3(C)[C@]2(C(=O)CO)O1 (stereo partly shown) [budesonide, 16a,17-butylidenedioxyprednisolone] | did not show any effect | 100 |
| CCCC1O[C@@H]2C[C@H]3[C@@H]4CCC5=CC(=O)C=C[C@]5(C)[C@H]4[C@@H](O)C[C@]3(C)[C@]2(C(=O)CO[N+](=O)[O-])O1 (stereo partly shown) [Example 2A, Budesonide-21-Nitrate ester] | – | 5 |
| CCCC1O[C@@H]2C[C@H]3[C@@H]4CCC5=CC(=O)C=C[C@]5(C)[C@H]4[C@@H](ON=O)C[C@]3(C)[C@]2(C(=O)CO)O1 (stereo partly shown) [Example 1, Budesonide-11-nitrite ester] | – | 0.02 |
